The numbers were not newly measured in patent publication US20260265214A1, “NOVEL DERIVATIVES OF GLYCEROL” (SYMRISE AG, priority 2023, published 2026), which cites them from elsewhere.

The conditions of this data set: in 28 days.

On to `CCCCCC1C(=O)CCC1CC(=O)OC` (stereo not shown) [methyl dihydrojasmonate, methyl 2-(3′-oxo-2′-pentylcyclopentyl)acetate], for which the readily biodegradable is 85%.
